Reference: EP0745595A1, “3-(3-Aryloxyphenyl)-1-(substituted methyl)-s-triazine-2,4,6-oxo or thiotrione herbicidal agents” (American Cyanamid Company, priority 1995, dated 1996)

How the values were obtained:
Assay type in all cases: in vivo
[1] = test system: IPOMOEA SPP.; assay: Postemergence herbicidal evaluation, IPOSS (Morningglory spp.)
Description: (§1) In the tests, seedling plants are grown in jiffy flats for about two weeks. The test compounds are dispersed in 50/50 acetone/water mixtures containing 0.5% TWEEN®20, a polyoxyethylene sorbitan monolaurate surfactant of Atlas Chemical Industries, […] to the plants through a spray nozzle operating at 40 psi for a predetermined time. After spraying, the plants are placed on greenhouse benches and are cared for in the usual manner, commensurate with conventional greenhouse practices. From four to five weeks after treatment, the seedling plants are examined and rated according to the rating system set forth below. Where more than one test is involved for a given compound, the data are averaged.
(§2) Plant species employed in these evaluations are reported by header abbreviation, common name and scientific name.
(§3) Results of herbicide evaluation are expressed on a rating scale (0-9). The scale is based upon a visual observation of plant stand, vigor, malformation, size, chlorosis and overall plant appearance as compared with a control.

[2] = test system: GLYCINE MAX(L) MERR. CV. WILLIAMS; assay: Postemergence herbicidal evaluation, GLXMAW (Soybean, Williams); parameters: key to GLXMAW rating / Herbicidal effect rating, GLXMAW / GLXMAW: 0-9 visual rating scale vs untreated control
Description: (§4) In the tests, seedling plants are grown in jiffy flats for about two weeks. The test compounds are dispersed in 50/50 acetone/water mixtures containing 0.5% TWEEN®20, a polyoxyethylene sorbitan monolaurate surfactant of Atlas Chemical Industries, in sufficient quantities to provide the equivalent of about 0.125 kg to 0.500 kg per hectare of active compound when applied to the plants through a spray nozzle operating at 40 psi for a predetermined time. After spraying, the plants are placed on greenhouse benches and are cared for in the usual manner, commensurate with conventional greenhouse practices. From four to five weeks after treatment, the seedling plants are examined and rated according to the rating system set forth below. Where more than one test is involved for a given compound, the data are averaged.
as §2, §3

[3] = test system: TRITICUM AESTIVUM, CV. APOLLO; assay: Postemergence herbicidal evaluation, TRZAWO (Wheat, Winter, CV. APOLLO)
Description: In the tests, seedling plants are grown in jiffy flats for about two weeks. The test compounds are dispersed in 50/50 acetone/water mixtures containing 0.5% TWEEN®20, a polyoxyethylene sorbitan monolaurate surfactant of Atlas Chemical Industries, […] through a spray nozzle operating at 40 psi for a predetermined time. After spraying, the plants are placed on greenhouse benches and are cared for in the usual manner, commensurate with conventional greenhouse practices. From four to five weeks after treatment, the seedling plants are examined and rated according to the rating system set forth below. Where more than one test is involved for a given compound, the data are averaged.
as §2, §3

[4] = test system: ORYZA SATIVA, L. TEBONNET; assay: Rice tolerance to post-transplant applications under flooded paddy conditions, ORYSAT (Rice, Tebonnet); conditions: post-transplanted rice
Description: as §3
The tolerance of transplanted rice to post-transplanted herbicide applications is determined as follows: two ten-day-old rice seedlings (CV. Tebonnet) are transplanted into a silt loam soil in 32 oz. plastic containers with a diameter of 10.5 cm and no drainage holes. After transplanting the containers are flooded and the water level is maintained at 1.5 to 3 cm above the soil surface. […] The treated containers are placed on greenhouse benches, watered such that the water level is maintained as stated above, and cared for according to normal greenhouse procedures. Three to four weeks after treatment the test is terminated and each container is examined and herbicidal effect rated according to the rating system provided in Example 40. The compounds evaluated are reported by compound number given in Example 40.
Plant species employed in this example are reported by header abbreviation, common name and scientific name.

[5] = test system: ZEA MAYS L.; assay: Postemergence herbicidal evaluation, ZEAMX (Corn, Field)
Description: as §1, §2, §3

[6] = test system: AMBROSIA ARTEMISIIFOLIA, L.; assay: Postemergence herbicidal evaluation, AMBEL (Ragweed, Common)
Description: as §1, §2, §3

[7] = test system: CHENOPODIUM ALBUM, L.; assay: Preemergence herbicidal evaluation, CHEAL (Lambsquarters, Common);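 further: higher means more injury with 8 approaching complete kill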
From the text: as §3
The preemergence herbicidal activity of the test compounds of the present invention is exemplified by the following tests in which the seeds of a variety of monocotyledonous and dicotyledonous plants are separately mixed with potting soil and planted on top of approximately one inch of soil in separate pint cups. […] The treated cups are then placed on greenhouse benches, watered and cared for in accordance with conventional greenhouse procedures. From four to five weeks after treatment, the tests are terminated and each cup is examined and rated according to the rating system provided in Example 40.
The compounds evaluated are reported by compound number given in Example 40.

[8] = test system: ORYZA SATIVA, L. TEBONNET; assay: Postemergence herbicidal evaluation, ORYSAT (Rice, Tebonnet); parameters: key: 0-9 visual rating scale vs untreated control
Description: as §4, §2, §3

[9] = test system: CHENOPODIUM ALBUM, L.; assay: Postemergence herbicidal evaluation, CHEAL (Lambsquarters, Common)
Description: as §1, §2, §3

[10] = test system: ABUTILON THEOPHRASTI, MEDIC.; assay: Postemergence herbicidal evaluation, ABUTH (Velvetleaf)
Description: as §1, §2, §3

[11] = test system: GALIUM APARINE; assay: Postemergence herbicidal evaluation, GALAP (Galium); parameters: key to GALAP rating / Herbicidal effect rating, GALAP / GALAP: 0-9 visual rating scale vs untreated control
Description: as §4, §2, §3

[12] = test system: ECHINOCHLOA CRUS-GALLI, (L) BEAU; assay: Postemergence herbicidal evaluation, ECHCG (Barnyardgrass); parameters: key to ECHCG rating / Herbicidal effect rating, ECHCG / ECHCG: 0-9 visual rating scale vs untreated control
Description: as §4, §2, §3

[13] = test system: SETARIA VIRIDIS, (L) BEAU; assay: Postemergence herbicidal evaluation, SETVI (Foxtail, Green); parameters: key to SETVI rating / Herbicidal effect rating, SETVI / SETVI: 0-9 visual rating scale vs untreated control
Description: as §4, §2, §3

[14] = test system: CASSIA OBTUSIFOLIA, L.; assay: Postemergence herbicidal evaluation, CASOB (Sicklepod); parameters: key to CASOB rating / Herbicidal effect rating, CASOB / CASOB: 0-9 visual rating scale vs untreated control
Description: as §4, §2, §3

Question: What does the source list for Cn1c(=O)[nH]c(=O)n(-c2cc(Oc3ccc(C(F)(F)F)cc3Cl)ccc2[N+](=O)[O-])c1=O [B, reference compound]?
Answer: Herbicidal effect rating, IPOSS ([1]; 0.031 kg/ha): 8.0; Herbicidal effect rating, IPOSS ([1]; 0.063 kg/ha): 9.0; Herbicidal effect rating, IPOSS ([1]; 0.125 kg/ha): 8.0; Herbicidal effect rating, IPOSS ([1]; 0.250 kg/ha): 9.0; Herbicidal effect rating, GLXMAW ([2]; 0.031 kg/ha): 3.3; Herbicidal effect rating, GLXMAW ([2]; 0.063 kg/ha): 4.0; Herbicidal effect rating, GLXMAW ([2]; 0.125 kg/ha): 4.0; Herbicidal effect rating, GLXMAW ([2]; 0.250 kg/ha): 4.3; Herbicidal effect rating, TRZAWO ([3]; 0.031 kg/ha): 3.0; Herbicidal effect rating, TRZAWO ([3]; 0.063 kg/ha): 3.0; Herbicidal effect rating, TRZAWO ([3]; 0.125 kg/ha): 4.0; Herbicidal effect rating, TRZAWO ([3]; 0.250 kg/ha): 4.3; ORYSAT ([4]; Rate 0.031 kg/ha): 2.0; ORYSAT ([4]; Rate 0.063 kg/ha): 3.0; ORYSAT ([4]; Rate 0.125 kg/ha): 2.5; ORYSAT ([4]; Rate 0.250 kg/ha): 4.5; Herbicidal effect rating, ZEAMX ([5]; 0.031 kg/ha): 3.3; Herbicidal effect rating, ZEAMX ([5]; 0.063 kg/ha): 3.3; Herbicidal effect rating, ZEAMX ([5]; 0.125 kg/ha): 4.5; Herbicidal effect rating, ZEAMX ([5]; 0.250 kg/ha): 4.3; Herbicidal effect rating, AMBEL ([6]; 0.031 kg/ha): 3.0; Herbicidal effect rating, AMBEL ([6]; 0.063 kg/ha): 4.5; Herbicidal effect rating, AMBEL ([6]; 0.125 kg/ha): 8.0; Herbicidal effect rating, AMBEL ([6]; 0.250 kg/ha): 7.0; CHEAL ([7]; Rate 0.031 kg/ha): 4.5; CHEAL ([7]; Rate 0.063 kg/ha): 4.5; CHEAL ([7]; Rate 0.125 kg/ha): 4.5; CHEAL ([7]; Rate 0.250 kg/ha): 4.5; Herbicidal effect rating, ORYSAT ([8]; 0.031 kg/ha): 4.0; Herbicidal effect rating, ORYSAT ([8]; 0.063 kg/ha): 4.5; Herbicidal effect rating, ORYSAT ([8]; 0.125 kg/ha): 5.5; Herbicidal effect rating, ORYSAT ([8]; 0.250 kg/ha): 5.0; Herbicidal effect rating, CHEAL ([9]; 0.031 kg/ha): 2.0; Herbicidal effect rating, CHEAL ([9]; 0.063 kg/ha): 2.5; Herbicidal effect rating, CHEAL ([9]; 0.125 kg/ha): 7.0; Herbicidal effect rating, CHEAL ([9]; 0.250 kg/ha): 4.5; Herbicidal effect rating, ABUTH ([10]; 0.031 kg/ha): 4.5; Herbicidal effect rating, ABUTH ([10]; 0.063 kg/ha): 7.0; Herbicidal effect rating, ABUTH ([10]; 0.125 kg/ha): 7.0; Herbicidal effect rating, ABUTH ([10]; 0.250 kg/ha): 9.0; Herbicidal effect rating, GALAP ([11]; 0.031 kg/ha): 2.0; Herbicidal effect rating, GALAP ([11]; 0.063 kg/ha): 2.5; Herbicidal effect rating, GALAP ([11]; 0.125 kg/ha): 7.0; Herbicidal effect rating, GALAP ([11]; 0.250 kg/ha): 4.5; Herbicidal effect rating, ECHCG ([12]; 0.031 kg/ha): 1.0; Herbicidal effect rating, ECHCG ([12]; 0.063 kg/ha): 2.0; Herbicidal effect rating, ECHCG ([12]; 0.125 kg/ha): 3.0; Herbicidal effect rating, ECHCG ([12]; 0.250 kg/ha): 3.5; Herbicidal effect rating, SETVI ([13]; 0.031 kg/ha): 0.5; Herbicidal effect rating, SETVI ([13]; 0.063 kg/ha): 1.0; Herbicidal effect rating, SETVI ([13]; 0.125 kg/ha): 0.0; Herbicidal effect rating, SETVI ([13]; 0.250 kg/ha): 2.0; Herbicidal effect rating, CASOB ([14]; 0.031 kg/ha): 3.5; Herbicidal effect rating, CASOB ([14]; 0.063 kg/ha): 4.0; Herbicidal effect rating, CASOB ([14]; 0.125 kg/ha): 8.0; Herbicidal effect rating, CASOB ([14]; 0.250 kg/ha): 5.5
